Laboratory results published in patent publication US11723890B2, “Methods of treatment using an mTORC1 modulator” (Navitor Pharmaceuticals, Inc., priority 2019, dated 2023).

Columns and labels:
rat = assay: 14-day Q3D oral toxicology study in rats; type: in vivo
Protocol: (§1) In rats administered 160, 500, or 1000 mg/kg PO every 3 days (Q3D) for 14 days (5 doses total), the no-observed-adverse-effect level (NOAEL) was 160 mg/kg.
(§2) Factors Influencing Starting and Stopping Dose for compound A: The proposed starting dose of compound A (150 mg) was based on considering the NOAEL dose of compound A in the most sensitive species (160 mg/kg dosed Q3D for 14 days in rat), determining the human equivalent dose (HED) based on the body surface area difference between the two species (˜26 mg/kg, or ˜1560 mg for a 60 kg human), followed by applying a safety factor of 10 to yield the maximum recommended starting dose (MRSD). Based on the above considerations, the starting dose of compound A in the present study was 150 mg. Based on an integrated assessment of nonclinical findings with compound A, the planned maximum dose for compound A in the first-time-in-humans (FTIH) study was 2400 mg. Extrapolated on the basis of body surface area, the 2400 mg dose is equivalent to 247 mg/kg in rats and 123 mg/kg in monkeys. […] At 160 mg/kg in monkeys, the only effect was a slight decrease in heart rate (approximately 18%, or approximately 30 beats per minute, compared with vehicle).
(§3) In addition, the present clinical study included frequent clinical laboratory tests.

[1] = 14-day Q3D oral toxicology study in rats; type: in vivo, rat; conditions: rat, in vivo
Protocol: as §1, §2, §3

healthy male volunteers = assay: Example 3: safety and tolerability of two sequential doses in healthy male volunteers; type: in vivo, human; conditions: healthy male subjects; two doses 2400 mg 48 hours apart
Protocol: Safety Endpoints: The safety endpoint was to assess the safety and tolerability of sequential doses of compound A vs. placebo in healthy male volunteers, as assessed by clinical laboratory parameters, physical, neurologic, and psychiatric examinations, vital signs, ECGs, EEGs, and adverse events.
This study was designed to evaluate the safety, tolerability, pharmacodynamics, and pharmacokinetics of two sequential doses of 2400 mg compound A (separated by 2 days), compared with placebo, in 24 healthy adult males (12 receiving compound A, 12 receiving placebo).

[2] = system: BDNF and BDNF receptor (NTRK2); assay: Example 2: CSF BDNF and BDNF receptor (NTRK2) fragment levels; type: in vivo, human; conditions: healthy males; single oral 2400 mg; FIGS. 9 and 10
From the text: Exploratory Objective(s): The exploratory objectives of this study were as follows using CSF and plasma samples collected over the same time frame as the PK samples: • conducted unbiased metabolomic analysis using validated methods as described: https://www.metabolon.com/what-we-do/our-technology. • conducted unbiased proteomic analysis using validated methods as described: https://www.biognosys.com/technology. Study Endpoints:
Pharmacokinetic, Metabolomic, and Proteomic Variables: Blood and CSF samples for the PK, metabolomics, and proteomic analysis of compound A were collected at various time points and were processed and analyzed by a validated method for determining concentrations of compound A.

healthy volunteers = assay: Example 1 Part A: safety and tolerability of single ascending doses in healthy volunteers
From the text: Up to approximately 48 healthy volunteers were randomly assigned to double-blind treatment. […] The in-house period was 6 days/5 nights. The duration of each subject's participation was up to 39 days, including screen/washout and follow-up.
The study included standard safety and tolerability assessments—e.g., physical, neurological, and psychiatric examinations, vital signs, oral temperature, respiration rate, weight, 12-lead paper electrocardiograms (pECGs), dECGs, clinical laboratory tests, monitoring of adverse events (AEs) and concomitant medications, and, in Part A of the study, cardiovascular (CV) telemetry and safety EEGs.
Subjects were required to abstain from eating or drinking for two hours prior to and after dosing. • Subjects randomized to receive placebo (purified water and Flavor Sweet-SF™): Single dose placebo was administered orally as a solution on Day 1. Subjects were required to abstain from eating or drinking for two hours prior to and after dosing.
An AE is any unfavorable and unintended sign (including an abnormal laboratory finding), symptom, or disease temporally associated with the use of a medical treatment or procedure, whether or not considered related to the medical treatment or procedure. […] An AE term is a unique representation of a specific event used for medical documentation and scientific analyses.
A TEAE is an AE that either commenced following initiation of study treatment or was present prior to study treatment but increased in frequency or severity following initiation of study treatment.

## CC(C)(C[C@H](N)C(=O)O)C(F)F [Compound A, (S)-2-amino-5,5-difluoro-4,4-dimethylpentanoic acid]
rat; based on body surface area difference, 60 kg human
  human equivalent dose (HED) of rat NOAEL for a 60 kg human: ~1560 mg
rat; rat, in vivo, po
  other findings, not considered adverse: slightly decreased lymphocyte, monocyte, and neutrophil counts
rat; rat, in vivo, po, 500 mg/kg
  findings at high doses: lymphoid atrophy and decreased leucocyte counts
rat; rat, in vivo, po, 1000 mg/kg
  adverse effects at 1000 mg/kg: regenerative anemia in one male, considered likely an episode of gastrointestinal (GI) bleeding, and hepatocellular injury in one male
[1]; oral, 160 mg/kg, based on body surface area difference, read-out: human equivalent dose (HED) of rat NOAEL
  human equivalent dose of rat NOAEL at 14 days: ~26 mg/kg
[1]; rats, 160, 500 or 1000 mg/kg PO Q3D for 14 days (5 doses), read-out: no-observed-adverse-effect level (NOAEL)
  NOAEL at 14 days: 160 mg/kg
Healthy male volunteers
  deaths, SAEs, discontinuations due to TEAEs, Grade 2 or 3 TEAEs: no deaths or other SAEs, discontinuations due to TEAEs, or moderate (Grade 2) or severe (Grade 3) TEAEs
  dissociative effects: No dissociative effects were reported
  incidence of TEAEs: 8.3%
  incidence of drug-related TEAEs: 0%
  proconvulsant activity on safety EEGs: no evidence
  safety and tolerability: generally safe and well tolerated
  severity of TEAEs: mild (Grade 1)
[2]
  CSF BDNF and BDNF receptor (NTRK2) fragment levels: rapid release of BDNF and receptor degradation
Healthy volunteers; all doses Total, N = 36
  Number of subjects with ≥1 TEAE: 13 (36.1) n (%)
  TEAE: Abdominal pain: 1 n (%)
  TEAE: Abdominal pain lower: 1 n (%)
  TEAE: Blood creatine phosphokinase increased: 1 n (%)
  TEAE: Dermatitis contact: 3 n (%)
  TEAE: Diarrhea: 1 n (%)
  TEAE: Dizziness: 4 n (%)
  TEAE: Dry mouth: 1 n (%)
  TEAE: Headache: 2 n (%)
  TEAE: Hot flush: 1 n (%)
  TEAE: Lipase increased: 1 n (%)
  TEAE: Nausea: 3 n (%)
  TEAE: Presyncope: 1 n (%)
  TEAE: Somnolence: 1 n (%)
  TEAE: Vomiting: 1 n (%)
  Total number of TEAEs: 22 n (%)
Healthy volunteers; single oral 150 mg, N = 6
  Number of subjects with ≥1 TEAE: 2 (33.3) n (%)
  TEAE: Abdominal pain lower: 1 n (%)
  TEAE: Dizziness: 1 n (%)
  Total number of TEAEs: 3 n (%)
Healthy volunteers; single oral 300 mg, N = 6
  Number of subjects with ≥1 TEAE: 2 (33.3) n (%)
  TEAE: Blood creatine phosphokinase increased: 1 n (%)
  TEAE: Lipase increased: 1 n (%)
  Total number of TEAEs: 2 n (%)
Healthy volunteers; single oral 600 mg, N = 6
  Number of subjects with ≥1 TEAE: 1 (16.7) n (%)
  TEAE: Dizziness: 1 n (%)
  TEAE: Presyncope: 1 n (%)
  Total number of TEAEs: 1 n (%)
Healthy volunteers; single oral 1000 mg, N = 6
  Number of subjects with ≥1 TEAE: 1 (16.7) n (%)
  TEAE: Dizziness: 1 n (%)
  Total number of TEAEs: 1 n (%)
Healthy volunteers; single oral 1600 mg, N = 6
  Number of subjects with ≥1 TEAE: 4 (66.7) n (%)
  TEAE: Abdominal pain: 1 n (%)
  TEAE: Dermatitis contact: 2 n (%)
  TEAE: Diarrhea: 1 n (%)
  TEAE: Dizziness: 2 n (%)
  TEAE: Dry mouth: 1 n (%)
  TEAE: Headache: 1 n (%)
  TEAE: Nausea: 1 n (%)
  TEAE: Somnolence: 1 n (%)
  Total number of TEAEs: 10 n (%)
Healthy volunteers; single oral 2400 mg, N = 6
  Number of subjects with ≥1 TEAE: 3 (50.0) n (%)
  TEAE: Dermatitis contact: 1 n (%)
  TEAE: Headache: 1 n (%)
  TEAE: Nausea: 2 n (%)
  TEAE: Vomiting: 1 n (%)
  Total number of TEAEs: 5 n (%)
Healthy volunteers; single oral doses 150-2400 mg
  Vitals, labs, and ECG findings: unremarkable
  maximally tolerated dose: not reached
  safety and tolerability: well tolerated, with no serious adverse events, and no discontinuations due to adverse events
  severity of adverse events: mild
Healthy volunteers; single oral doses 150-2400 mg, listed as compound A
  safety and tolerability: generally safe and well tolerated
Healthy volunteers; single oral doses 150-2400 mg, vs placebo
  BPRS+ and CADSS scores: comparable as between the treatment groups
